Experimental data as given in patent US11173151B2, “Substituted triazole derivatives and uses thereof” (BAYER AKTIENGESELLSCHAFT, priority 2017, dated 2021).

What was measured:
human V1a receptor = molecular target: T1, human V1a receptor (Homo sapiens, UniProt P37288); assay: Cellular in vitro assay for determining vasopressin receptor activity, V1a receptor cell line (CHO, aequorin luminescence); format: cell-based; conditions: for IC50: CHO cell line transfected with human V1a receptor, [Arg]-vasopressin at EC50 concentration, read-out: IC50 hV1a; for ratio IC50 hV2/hV1a: selectivity ratio IC50 hV2 / IC50 hV1a
T1 construct: expressed in transfected cells; host or cells: CHO K1 (ATCC), also stably transfected with a modified aequorin
T1 sequence (P37288 whole entry): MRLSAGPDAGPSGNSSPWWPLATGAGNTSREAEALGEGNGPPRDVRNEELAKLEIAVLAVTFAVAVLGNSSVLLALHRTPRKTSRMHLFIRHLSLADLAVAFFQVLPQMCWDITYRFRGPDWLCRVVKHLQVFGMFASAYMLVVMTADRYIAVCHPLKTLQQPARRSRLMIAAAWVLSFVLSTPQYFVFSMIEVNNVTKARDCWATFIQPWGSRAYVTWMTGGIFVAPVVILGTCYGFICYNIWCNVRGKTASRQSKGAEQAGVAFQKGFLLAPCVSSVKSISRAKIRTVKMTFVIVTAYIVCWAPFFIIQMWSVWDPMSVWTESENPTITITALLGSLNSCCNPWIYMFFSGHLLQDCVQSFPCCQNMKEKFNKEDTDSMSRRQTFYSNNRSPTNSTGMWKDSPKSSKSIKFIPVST
How it was run: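 IC50 from inhibition of [Arg]-vasopressin (EC50 concentration)-evoked aequorin luminescence in CHO K1 cells, with 10-min compound pretreatment.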

human V2 receptor = molecular target: T2, human V2 receptor (Homo sapiens, UniProt P30518); assay: Cellular in vitro assay for determining vasopressin receptor activity, V2 receptor cell line (CHO, CRE-luciferase); format: cell-based; conditions: CHO cell line transfected with human V2 receptor; [Arg8]-vasopressin at EC50 concentration, 3 hours; read-out: IC50 hV2
T2 construct: expressed in transfected cells; host or cells: CHO K1 (ATCC) expressing firefly luciferase under a CRE-responsive promoter
T2 sequence (P30518 whole entry): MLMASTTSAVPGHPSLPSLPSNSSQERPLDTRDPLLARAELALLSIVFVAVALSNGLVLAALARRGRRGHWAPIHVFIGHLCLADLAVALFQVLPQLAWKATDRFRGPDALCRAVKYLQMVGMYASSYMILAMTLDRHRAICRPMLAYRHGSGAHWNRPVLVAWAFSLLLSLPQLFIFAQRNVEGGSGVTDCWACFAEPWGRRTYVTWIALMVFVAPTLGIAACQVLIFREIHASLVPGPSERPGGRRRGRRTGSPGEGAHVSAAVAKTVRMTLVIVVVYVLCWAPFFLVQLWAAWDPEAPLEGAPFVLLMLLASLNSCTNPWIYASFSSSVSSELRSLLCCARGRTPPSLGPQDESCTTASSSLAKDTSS

IC50 (human V1a receptor)	ratio IC50 hV2/hV1a (human V1a receptor)	IC50 (human V2 receptor)	Compound
1950 nM	4.0	7870 nM	CC(C)(N)CNc1ccncc1-n1cnc(Cn2nc(-c3ccc(Cl)cc3)n(C[C@H](O)C(F)(F)F)c2=O)n1 [Example 1, 2-[(1-{4-[(2-Amino-2-methylpropyl)amino]pyridin-3-yl}-1H-1,2,4-triazol-3-yl)methyl]-5-(4-chlorophenyl)-4-[(2S)-3,3,3-trifluoro-2-hydroxypropyl]-2,4-dihydro-3H-1,2,4-triazol-3-one]
585 nM	0.4	210 nM	CC(C)(O)CNc1ccncc1-n1cnc(Cn2nc(-c3ccc(Cl)cc3)n(C[C@H](O)C(F)(F)F)c2=O)n1 [Example 2, 5-(4-Chlorophenyl)-2-[(1-{4-[(2-hydroxy-2-methylpropyl)amino]pyridin-3-yl}-1H-1,2,4-triazol-3-yl)methyl]-4-[(2S)-3,3,3-trifluoro-2-hydroxypropyl]-2,4-dihydro-3H-1,2,4-triazol-3-one]
1220 nM	0.6	730 nM	NC1(CNc2ccncc2-n2cnc(Cn3nc(-c4ccc(Cl)cc4)n(C[C@H](O)C(F)(F)F)c3=O)n2)CC1 [Example 3, 2-{[1-(4-{[(1-Aminocyclopropyl)methyl]amino}pyridin-3-yl)-1H-1,2,4-triazol-3-yl]methyl}-5-(4-chlorophenyl)-4-[(2S)-3,3,3-trifluoro-2-hydroxypropyl]-2,4-dihydro-3H-1,2,4-triazol-3-one]
115 nM	1.1	125 nM	O=c1n(Cc2ncn(-c3cnccc3NCC3(O)CC3)n2)nc(-c2ccc(Cl)cc2)n1C[C@H](O)C(F)(F)F [Example 4, 5-(4-Chlorophenyl)-2-{[1-(4-{[(1-hydroxycyclopropyl)methyl]amino}pyridin-3-yl)-1H-1,2,4-triazol-3-yl]methyl}-4-[(2S)-3,3,3-trifluoro-2-hydroxypropyl]-2,4-dihydro-3H-1,2,4-triazol-3-one]
180 nM	16.7	3000 nM	O=C1CN(c2ccncc2-n2cnc(Cn3nc(-c4ccc(Cl)cc4)n(C[C@H](O)C(F)(F)F)c3=O)n2)CCN1 [Example 5, 4-{3-[3-({3-(4-Chlorophenyl)-5-oxo-4-[(2S)-3,3,3-trifluoro-2-hydroxypropyl]-4,5-dihydro-1H-1,2,4-triazol-1-yl}methyl)-1H-1,2,4-triazol-1-yl]pyridin-4-yl}piperazin-2-one]
71.5 nM	35.0	2500 nM	O=c1n(Cc2ncn(-c3cnccc3N3CCS(=O)(=O)CC3)n2)nc(-c2ccc(Cl)cc2)n1C[C@H](O)C(F)(F)F [Example 6, 5-(4-Chlorophenyl)-2-({1-[4-(1,1-dioxidothiomorpholin-4-yl)pyridin-3-yl]-1H-1,2,4-triazol-3-yl}methyl)-4-[(2S)-3,3,3-trifluoro-2-hydroxypropyl]-2,4-dihydro-3H-1,2,4-triazol-3-one]
585 nM	5.1	3000 nM	O=C1NCCN1CCNc1ccncc1-n1cnc(Cn2nc(-c3ccc(Cl)cc3)n(C[C@H](O)C(F)(F)F)c2=O)n1 [Example 8, 5-(4-Chlorophenyl)-2-{[1-(4-{[2-(2-oxoimidazolidin-1-yl)ethyl]amino}pyridin-3-yl)-1H-1,2,4-triazol-3-yl]methyl}-4-[(2S)-3,3,3-trifluoro-2-hydroxypropyl]-2,4-dihydro-3H-1,2,4-triazol-3-one]
6.5 nM	43.8	285 nM	O=c1n(Cc2ncn(-c3cnccc3N3CCC(F)(F)CC3)n2)nc(-c2ccc(Cl)cc2)n1C[C@H](O)C(F)(F)F [Example 9, 5-(4-Chlorophenyl)-2-({1-[4-(4,4-difluoropiperidin-1-yl)pyridin-3-yl]-1H-1,2,4-triazol-3-yl}methyl)-4-[(2S)-3,3,3-trifluoro-2-hydroxypropyl]-2,4-dihydro-3H-1,2,4-triazol-3-one]
235 nM	1.9	445 nM	O=c1n(Cc2ncn(-c3cnccc3NCC(F)(F)F)n2)nc(-c2ccc(Cl)cc2)n1C[C@H](O)C(F)(F)F [Example 10, 5-(4-Chlorophenyl)-2-[(1-{4-[(2,2,2-trifluoroethyl)amino]pyridin-3-yl}-1H-1,2,4-triazol-3-yl)methyl]-4-[(2S)-3,3,3-trifluoro-2-hydroxypropyl]-2,4-dihydro-3H-1,2,4-triazol-3-one]
958 nM	0.4	410 nM	O=c1n(Cc2ncn(-c3cnccc3NCCC(F)(F)F)n2)nc(-c2ccc(Cl)cc2)n1C[C@H](O)C(F)(F)F [Example 11, 5-(4-Chlorophenyl)-4-[(2S)-3,3,3-trifluoro-2-hydroxypropyl]-2-[(1-{4-[(3,3,3-trifluoropropyl)amino]pyridin-3-yl}-1H-1,2,4-triazol-3-yl)methyl]-2,4-dihydro-3H-1,2,4-triazol-3-one]
727 nM	0.5	370 nM	CC(F)(F)CNc1ccncc1-n1cnc(Cn2nc(-c3ccc(Cl)cc3)n(C[C@H](O)C(F)(F)F)c2=O)n1 [Example 12, 5-(4-Chlorophenyl)-2-[(1-{4-[(2,2-difluoropropyl)amino]pyridin-3-yl}-1H-1,2,4-triazol-3-yl)methyl]-4-[(2S)-3,3,3-trifluoro-2-hydroxypropyl]-2,4-dihydro-3H-1,2,4-triazol-3-one]
278 nM	19.2	5330 nM	CC1(C)CN(c2ccncc2-n2cnc(Cn3nc(-c4ccc(Cl)cc4)n(C[C@H](O)C(F)(F)F)c3=O)n2)CCN1 [Example 14, 5-(4-Chlorophenyl)-2-({1-[4-(3,3-dimethylpiperazin-1-yl)pyridin-3-yl]-1H-1,2,4-triazol-3-yl}methyl)-4-[(2S)-3,3,3-trifluoro-2-hydroxypropyl]-2,4-dihydro-3H-1,2,4-triazol-3-one]
19.3 nM	40.8	785 nM	O=c1n(Cc2ncn(-c3cnccc3N3CCOCC3)n2)nc(-c2ccc(Cl)cc2)n1C[C@H](O)C(F)(F)F [Example 15, 5-(4-Chlorophenyl)-2-({1-[4-(morpholin-4-yl)pyridin-3-yl]-1H-1,2,4-triazol-3-yl}methyl)-4-[(2S)-3,3,3-trifluoro-2-hydroxypropyl]-2,4-dihydro-3H-1,2,4-triazol-3-one]
79.5 nM	19.5	1550 nM	CC(C)(C)OC(=O)CNc1ccncc1-n1cnc(Cn2nc(-c3ccc(Cl)cc3)n(C[C@H](O)C(F)(F)F)c2=O)n1 [Example 16, Tert-butyl N-{3-[3-({3-(4-chlorophenyl)-5-oxo-4-[(2S)-3,3,3-trifluoro-2-hydroxypropyl]-4,5-dihydro-1H-1,2,4-triazol-1-yl}methyl)-1H-1,2,4-triazol-1-yl]pyridin-4-yl}glycinate]
2250 nM	1.3	2850 nM	NC(=O)CNc1ccncc1-n1cnc(Cn2nc(-c3ccc(Cl)cc3)n(C[C@H](O)C(F)(F)F)c2=O)n1 [Example 17, N^2-{3-[3-({3-(4-Chlorophenyl)-5-oxo-4-[(2S)-3,3,3-trifluoro-2-hydroxypropyl]-4,5-dihydro-1H-1,2,4-triazol-1-yl}methyl)-1H-1,2,4-triazol-1-yl]pyridin-4-yl}glycinamide]
23.7 nM	82.3	1950 nM	O=c1n(Cc2ncn(-c3cnccc3NCC3CS(=O)(=O)C3)n2)nc(-c2ccc(Cl)cc2)n1C[C@H](O)C(F)(F)F [Example 18, 5-(4-Chlorophenyl)-2-{[1-(4-{[(1,1-dioxidothietan-3-yl)methyl]amino}pyridin-3-yl)-1H-1,2,4-triazol-3-yl]methyl}-4-[(2S)-3,3,3-trifluoro-2-hydroxypropyl]-2,4-dihydro-3H-1,2,4-triazol-3-one]
430 nM	5.2	2250 nM	CC(C)(C)OC(=O)CCNc1ccncc1-n1cnc(Cn2nc(-c3ccc(Cl)cc3)n(C[C@H](O)C(F)(F)F)c2=O)n1 [Example 19, Tert-butyl N-{3-[3-({3-(4-chlorophenyl)-5-oxo-4-[(2S)-3,3,3-trifluoro-2-hydroxypropyl]-4,5-dihydro-1H-1,2,4-triazol-1-yl}methyl)-1H-1,2,4-triazol-1-yl]pyridin-4-yl}-beta-alaninate]
4350 nM	1.4	5920 nM	O=C(O)CCNc1ccncc1-n1cnc(Cn2nc(-c3ccc(Cl)cc3)n(C[C@H](O)C(F)(F)F)c2=O)n1 [Example 20, N-{3-[3-({3-(4-Chlorophenyl)-5-oxo-4-[(2S)-3,3,3-trifluoro-2-hydroxypropyl]-4,5-dihydro-1H-1,2,4-triazol-1-yl}methyl)-1H-1,2,4-triazol-1-yl]pyridin-4-yl}-beta-alanine]
840 nM	1.8	1480 nM	NC(=O)CCNc1ccncc1-n1cnc(Cn2nc(-c3ccc(Cl)cc3)n(C[C@H](O)C(F)(F)F)c2=O)n1 [Example 21, N^3-{3-[3-({3-(4-Chlorophenyl)-5-oxo-4-[(2S)-3,3,3-trifluoro-2-hydroxypropyl]-4,5-dihydro-1H-1,2,4-triazol-1-yl}methyl)-1H-1,2,4-triazol-1-yl]pyridin-4-yl}-beta-alaninamide]
250 nM	2.8	690 nM	NC(=O)[C@H]1CCCN1c1ccncc1-n1cnc(Cn2nc(-c3ccc(Cl)cc3)n(C[C@H](O)C(F)(F)F)c2=O)n1 [Example 22, 1-{3-[3-({3-(4-Chlorophenyl)-5-oxo-4-[(2S)-3,3,3-trifluoro-2-hydroxypropyl]-4,5-dihydro-1H-1,2,4-triazol-1-yl}methyl)-1H-1,2,4-triazol-1-yl]pyridin-4-yl}-D-prolinamide]
